Like-named read-outs stand apart in the source and are kept apart here.
Legend:
5-lipoxygenase = molecular target: T1, 5-lipoxygenase (Rattus norvegicus, UniProt P12527); test: Inhibition of 5-lipoxygenase in a cell-free homogenate of RBL-1 cells (production of lipoxygenase products from 14C-arachidonic acid); assay type: biochemical; conditions: rat RBL-1 40,000 xg supernatant; for IC50: 50% inhibition of lipoxygenase product generation
T1 construct: The cell-free homogenate was prepared by sonication of the cells followed by centrifugation at 40,000 xg; endogenous in cells; host or cells: RBL-1 (rat basophilic leukemia) cells, 40,000 xg supernatant of the sonicated homogenate
T1 sequence (P12527 1-673): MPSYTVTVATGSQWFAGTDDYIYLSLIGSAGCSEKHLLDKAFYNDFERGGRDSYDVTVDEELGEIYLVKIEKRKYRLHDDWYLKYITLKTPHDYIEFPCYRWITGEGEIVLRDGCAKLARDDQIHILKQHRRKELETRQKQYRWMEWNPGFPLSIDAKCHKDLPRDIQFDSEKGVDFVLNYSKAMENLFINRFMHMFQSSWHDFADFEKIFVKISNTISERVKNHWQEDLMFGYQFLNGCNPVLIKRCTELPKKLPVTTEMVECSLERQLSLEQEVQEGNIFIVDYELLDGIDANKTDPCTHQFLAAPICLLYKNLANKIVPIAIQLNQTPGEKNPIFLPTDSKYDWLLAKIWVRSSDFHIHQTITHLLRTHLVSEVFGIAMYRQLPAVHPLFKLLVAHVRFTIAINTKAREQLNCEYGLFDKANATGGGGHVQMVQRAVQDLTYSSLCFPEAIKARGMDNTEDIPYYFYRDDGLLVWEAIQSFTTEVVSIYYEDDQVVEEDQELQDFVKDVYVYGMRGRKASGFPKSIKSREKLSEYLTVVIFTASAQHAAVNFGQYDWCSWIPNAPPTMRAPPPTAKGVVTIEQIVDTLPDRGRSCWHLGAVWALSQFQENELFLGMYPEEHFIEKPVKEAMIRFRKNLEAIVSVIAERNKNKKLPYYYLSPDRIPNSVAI
Procedure: The inhibition of 5-lipoxygenase was tested in a cell-free homogenate by the procedure of Jakschik, B. et al., Biochem.Biophys.Res.Comm. 95, 103 (1980). Basically, rat basophilic leukemia cells (RBL-1 cells) were maintained in culture in a suitable medium, and were collected by centrifugation prior to assay. The cell-free homogenate was prepared by sonication of the cells followed by centrifugation at 40,000 xg. The CaCl2 dependent production of lipoxygenase products from ^14 C-arachidonic acid in the 40,000 xg supernatant was monitored in the presence of buffer (or other vehicle) or drug. Products were isolated by acidification and extraction, followed by thin layer chromatography. Radioactive areas corresponding to authentic lipoxygenase products were quantitated by liquid scintillation counting. Data was reported as the IC50, the concentration causing 50% inhibition of the generation of lipoxygenase products. The results are shown in Table II as the percent inhibition at 3 μM or the amount of compound necessary to cause 50% inhibition.

[1] = tested on: Arachidonate Induced Bronchospasm; test: Pulmonary mechanics assay: inhibition of arachidonate induced bronchospasm in anesthetized guinea pigs; assay type: in vivo, guinea pig (male Hartley); conditions: Cavia porcellus, guinea pig, % inhibition of control; for inhibition in vivo at 15 mg/kg: dose 15 mg/kg IV; for inhibition in vivo at 10 mg/kg: dose 10 mg/kg ID; for inhibition in vivo at 25 mg/kg: dose 25 mg/kg ID; for inhibition in vivo at 50 mg/kg: dose 50 mg/kg ID; for inhibition in vivo at 100 mg/kg: dose 100 mg/kg ID
Procedure: The bronchodilating activity of the compounds was tested in a pulmonary mechanics assay. Basically, male Hartley guinea pigs (~400-500 g) were anesthetized with urethane (2 g/kg, i.p.) and placed in a whole body plethysmograph. Cannulations of a jugular vein and carotid artery were performed for compound administration and monitoring blood presure, respectively. The trachea was cannulated for respiration at a constant volume via a miniature starling pump. A Validyne differential pressure transducer (±20 cm H2 O) sensed transpleural pressure via a 15 gauge needle inserted into the pleural cavity and a sidearm from the tracheal cannula. Tidal volume was sensed by another Validyne differential pressure transducer (±2 cm H2 O) from pressure changes inside the plethysmograph. An on-line Buxco pulmonary mechanics computer calculated air flow, dynamic lung compliance and lung resistance. The values were recorded on a print-out.
The guinea pigs were pretreated with succinyl choline (1.2 mg/kg, i.v.) to arrest spontaneous respiration. A control challenge of arachidonic acid (0.5-1.0 mg/kg, i.v.) was administered, and the animals were then dosed with the test compound by various routes. At least 10 minutes were allowed to expire between arachidonic acid challenges. A second challenge was given and compared to the control response. This comparison was indicative of cyclooxygenase inhibition. Indomethacin (10 mg/kg, i.v.) was administered immediately after the second challenge. A third challenge of a higher dose of arachidonic acid (5-10 mg/kg, i.v.) was given. This response was induced by SRS-A and compared to the responses elicited by a separate control group of animals. Activity was indicative of lipoxygenase inhibition. Propranolol (0.005 mg/kg, i.v.) may be given prior to the third challenge to enhance the response to SRS-A.
Bronchoconstriction induced by arachidonic acid with or without indomethacin was expressed as maximum percent change in dynamic lung compliance (Cdyn) and maximum percent increase in lung resistance (RL). Each guinea pig served as its own control for cyclooxygenase evaluation, while a treated group was compared to a control group for lipoxygenase evaluation. The results are shown in Table II and are expressed as the percent inhibition of control.

[2] = with indomethacin (10 mg/kg, i.v.), read-out: Bronchodilating Activity, % Inhibition of Arachidonate Induced Bronchospasm, with Indomethacin
[3] = without indomethacin, read-out: Bronchodilating Activity, % Inhibition of Arachidonate Induced Bronchospasm, without Indomethacin
[4] = iv, with indomethacin (10 mg/kg, i.v.), read-out: Bronchodilating Activity, % Inhibition of Arachidonate Induced Bronchospasm, with Indomethacin

Compound | inhibition at 3 µM (5-lipoxygenase) | inhibition in vivo at 15 mg/kg [1, 2] | inhibition in vivo at 15 mg/kg [1, 3] | further results
CN(O)C(=O)/C=C/c1ccc2c(c1)OCO2 [Example 12, 3,4-Methylenedioxy-N--methylcinnamohydroxamic acid] | 53% | 58% | 15% | –
COc1cc(/C=C/C(=O)N(C)O)cc(OC)c1OC [Example 3, 3,4,5-Trimethoxy-N-methycinnamohydroxamic acid] | 91% | 89% | 0% | –
COc1ccc(/C=C/C(=O)NO)cc1OC [Example 6, 3,4-Dimethoxycinnamohydroxamic acid] | 17% | – | – | inhibition in vivo at 10 mg/kg [1, 4]: 61%; inhibition in vivo at 10 mg/kg [1, 3]: 77%
CN(O)C(=O)/C=C/c1ccc(Cl)cc1Cl [Example 14, 2,4-Dichloro-N--methylcinnamohydroxamic acid] | 88% | – | – | –
CN(O)C(=O)/C=C/c1ccc(Cl)cc1 [Example 26, 4-Chloro-N--methylcinnamohydroxamic acid] | – | 70% | 87% | –
COc1ccc(/C=C/C(=O)N(C)O)c(OC)c1 [Example 20, 2,4-Dimethoxy-N--methylcinnamohydroxamic acid] | 100% | – | – | IC50 (5-lipoxygenase): 0.43 µM; inhibition in vivo at 25 mg/kg [1, 4]: 46%; inhibition in vivo at 25 mg/kg [1, 3]: 46%
COc1ccccc1/C=C\C(=O)N(C)O [Example 9, Cis-2-methoxy-N--methylcinnamohydroxamic acid] | 59% | 36% | 29% | –
COc1ccccc1/C=C/C(=O)N(C)O [Example 8, 2-Methoxy-N--methylcinnamohydroxamic acid] | 66% | 73% | 94% | inhibition in vivo at 50 mg/kg [1, 4]: 58%; inhibition in vivo at 50 mg/kg [1, 3]: -76%
COc1ccc(/C=C/C(=O)N(C)O)cc1OC [Example 4, 3,4-Dimethoxy-N-methylcinnamohydroxamic acid] | 89% | 90% | 82% | IC50 (5-lipoxygenase): 0.6 µM
COc1cc(/C=C/C(=O)N(C)O)cc(OC)c1O [Example 10, 3,5-Dimethoxy-4-hydroxy-N--methylcinnamohydroxamic acid] | 17% | – | – | –
COc1cccc(/C=C/C(=O)N(C)O)c1 [Example 24, 3-Methoxy-N--methylcinnamohydroxamic acid] | 54% | 66% | 28% | inhibition in vivo at 50 mg/kg [1, 4]: 49%; inhibition in vivo at 50 mg/kg [1, 3]: 0%
COc1cccc(OC)c1/C=C/C(=O)N(C)O [Example 22, 2,6-Dimethoxy-N--methylcinnamohydroxamic acid] | 41% | – | – | –
Cc1ccc(/C=C/C(=O)N(C)O)cc1 [Example 7, N,4-Dimethylcinnamohydroxamic acid] | – | 89% | 96% | IC50 (5-lipoxygenase): 0.55 µM; inhibition in vivo at 100 mg/kg [1, 4]: 0%; inhibition in vivo at 100 mg/kg [1, 3]: 59%
COc1ccc(OC)c(/C=C/C(=O)N(C)O)c1 [Example 2, 2,5-Dimethoxy-N-methylcinnamohydroxamic acid] | 53% | 49% | 65% | –
CN(O)C(=O)/C=C/c1c(Cl)cccc1Cl [Example 15, 2,6-Dichloro-N--methylcinnamohydroxamic acid] | 24% | – | – | –
CN(O)C(=O)/C=C/c1cc(C(C)(C)C)c(O)c(C(C)(C)C)c1 [Example 27, 3,5-Di-t-butyl-4-hydroxy-N--methyl-cinnamo-hydroxamic acid] | 65% | 89% | 56% | –
CN(O)C(=O)/C=C/c1ccc(Cl)c([N+](=O)[O-])c1 [Example 23, 4-Chloro-3-nitro-N--methylcinnamohydroxamic acid] | 30% | – | – | –
COc1cccc(/C=C/C(=O)N(C)O)c1OC [Example 19, 2,3-Dimethoxy-N--methylcinnamohydroxamic acid] | 44% | 70% | 34% | –
COc1cc(/C=C/C(=O)N(C)O)cc(OC)c1 [Example 18, 3,5-Dimethoxy-N--methylcinnamohydroxamic acid] | 100% | 78% | 48% | –
CN(O)C(=O)/C=C/c1ccc(Cl)c(Cl)c1 [Example 16, 3,4-Dichloro-N--methylcinnamohydroxamic acid] | 87% | 86% | 62% | –
CN(O)C(=O)/C=C/c1ccccc1 [Example 17, N--Methylcinnamohydroxamic acid] | 50% | – | – | inhibition in vivo at 50 mg/kg [1, 4]: 0%; inhibition in vivo at 50 mg/kg [1, 3]: -35%
CN(O)C(=O)/C=C/c1ccc(F)cc1 [Example 1, 4-Fluoro-N-methylcinnamohydroxamic acid] | 30% | – | – | –
COc1ccc(/C=C/C(=O)N(C)O)cc1 [Example 25, 4-Methoxy-N--methylcinnamohydroxamic acid] | – | 29% | 0% | IC50 (5-lipoxygenase): 1.3 µM
CN(O)C(=O)/C=C/c1ccc2c(c1)OCCO2 [Example 13, 3,4-(1,2-Ethylenedioxy)-N--methylcinnamohydroxamic acid] | 53% | – | – | –
CN(O)C(=O)/C=C/c1ccc(Cl)c(O)c1 [Example 5, 4-Chloro-3-hydroxy-N-methylcinnamohydroxamic acid] | 35% | – | – | –

— patent US4820828A, “Cinnamohydroxamic acids” (Ortho Pharmaceutical Corporation, priority 1987, dated 1989)
